These are literature values, as cited in patent publication US20170326065A1, “METHODS AND COMPOSITION FOR TREATMENT OF CARDIOVASCULAR CONDITIONS” (Ezra Pharma LLC, priority 2016, published 2017).

For `CCCCC(=O)N(Cc1ccc(-c2ccccc2-c2nnn[nH]2)cc1)[C@H](C(=O)O)C(C)C` [valsartan], the “T1/2 alpha phase of elimination” value (biphasic elimination, rapid alpha phase) is 1 to 2 h. For the same compound, the “T1/2 beta phase of elimination” value (biphasic elimination, slow beta phase, in h) is on record as 7-8. In addition, under “by 12 hours, marketed immediate release formulation”, the “peak plasma concentration reduced to” value was “approximately 65%”. Moreover, the absolute bioavailability entry (oral administration, printed range (10-35%)) is reported as “about 25%”. For the same compound, for the setting “valsartan”, the half-life entry was “about 6 hours”. Besides, the Tmax (in general, the time at which the peak concentration occurs) (valsartan, oral) was 2 to 4 h.
